Reference: article PMC11566907, “Accelerated hit identification with target evaluation, deep learning and automated labs: prospective validation in IRAK1” (Journal of Cheminformatics, 2024)
Like-named read-outs stand apart in the source and are kept apart here.

How the values were obtained:
IRAK1 [1] = molecular target: T1, IRAK1 (Homo sapiens, UniProt P51617); experiment: LanthaScreen Eu Kinase Binding Assay for IRAK1, hit dose-response assay (DRC); details: for DRC result, activity class: class by pIC50 value
T1 construct: purchased BPS Bioscience Inc. 40202
T1 sequence (P51617 whole entry): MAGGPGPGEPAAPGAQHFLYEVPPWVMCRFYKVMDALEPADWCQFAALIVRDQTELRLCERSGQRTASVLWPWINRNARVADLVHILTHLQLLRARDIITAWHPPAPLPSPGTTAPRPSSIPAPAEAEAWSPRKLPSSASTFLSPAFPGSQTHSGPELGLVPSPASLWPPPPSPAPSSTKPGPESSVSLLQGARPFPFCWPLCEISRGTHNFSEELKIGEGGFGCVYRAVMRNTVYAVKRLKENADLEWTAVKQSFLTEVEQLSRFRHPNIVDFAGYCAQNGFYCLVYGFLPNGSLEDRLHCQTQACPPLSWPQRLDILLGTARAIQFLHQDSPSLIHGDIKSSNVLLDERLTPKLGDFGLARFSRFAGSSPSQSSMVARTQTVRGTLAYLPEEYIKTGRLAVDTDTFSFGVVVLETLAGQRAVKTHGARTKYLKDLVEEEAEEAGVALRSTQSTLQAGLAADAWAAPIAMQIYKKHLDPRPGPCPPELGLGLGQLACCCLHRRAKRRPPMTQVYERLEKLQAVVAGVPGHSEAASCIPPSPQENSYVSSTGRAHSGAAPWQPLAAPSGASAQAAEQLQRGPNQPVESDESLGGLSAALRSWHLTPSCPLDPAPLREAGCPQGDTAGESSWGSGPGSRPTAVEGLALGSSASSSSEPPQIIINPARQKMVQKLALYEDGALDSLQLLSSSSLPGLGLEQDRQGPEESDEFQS
Description: The experimental method of LanthaScreen^TM Eu Kinase Binding Assay for IRAK1 was developed based on the Invitrogen^TM IRAK1-GST LanthaScreen^TM binding assay. Purified recombinant IRAK1-His (cat. # 40202) was purchased from BPS Bioscience Inc. (San Diego, CA, USA). Kinase tracer 236 (cat. # PR9078A) was purchased from Thermo Fisher Scientific Inc. (Waltham, MA, USA). Eu-W1024-anti-6xHis antibody (cat. #AD0400) and 384-well white ProxiPlates^TM (cat. # 6008289) were purchased from Perkin Elmer, Inc. (Waltham, MA, USA). Echo-qualified 384 well COC low dead volume source microplates (cat. #001-16128) and Echo-qualified 384 well polypropylene microplates (cat. #001-14615) were purchased from Beckman Coulter Inc.(Indianapolis, IN, USA). The assay was carried out in an enclosed workcell with subdued lighting. All reagents were prepared in the assay buffer (50 mM HEPES, 10 mM MgCl 2 , 1 mM EGTA, 0.01% Brij-35, 1 mM DTT) and kept on ice. These included 2 x tracer 236 (0.2 μ M), 2 x IRAK1 /antibody solution (20 nM IRAK1-His, 4 nM Eu-W1024-anti-6xHis antibody) and 2 x antibody solution (4 nM Eu-W1024-anti-6xHis antibody). Five microliters of 2 x tracer 236 was dispensed into a 384-well white ProxiPlate^TM, followed by either 5 μ l of 2 x IRAK1/antibody solution or 5 μ l of 2 x antibody solution on a Tempest® dispenser (Formulatrix, Inc., Bedford, MA, USA). The plate was sealed on a Wasp plate sealer (KBiosciences Limited, Basildon, Essex, UK) and centrifuged at 1000 x g for 15 s on a HiG^TM automated centrifuge (BioNex Solutions Inc., San Jose, CA, USA) and incubated at room temperature for 30 min. The plate was then peeled and read on a PHERAstar® FSX (BMG LABTECH Inc., Cary, NC, USA) with a LanthaScreen^TM module at 340/615, 665 nm. The TR-FRET ratio (acceptor emission/donor emission x 10,000) was used as the readout.
A dose-response assay was conducted for each of the compound in the diversified set of 283 hits. Each compound was assayed in an 8-point curve with approximately 4-fold dilutions (subject to Echo dispense volume limits), starting at 30 μ M, and the assays were run in triplicates. The exact concentrations are 30, 7.5, 1.875, 0.469, 0.117, 0.029, 0.007, 0.002 μM . In each plate, three replicates of a staurosporine titration curve starting at 3 μ M were assayed in parallel as a reference.
The IC 50 of each dose-response curve was derived by fitting a four-parameter logistic (4PL) model, shown in Eq. 3, where the respective variables are defined as follows: • A : Minimum asymptote. Response value when x approaches infinity. • D : Maximum asymptote. Response value when x is very small or close to zero. • B : Slope factor (Hill’s slope). Steepness of the curve. • C : Inflection point. The concentration of the analyte that gives half-maximal response. 3 f(x)=A+D-A/1+x/C^B The 4PL model was fitted for each compound with data points for all three replicates all at once. As an additional quality control, 4PL regression models for all sub-micromolar compounds were manually inspected. Computed IC 50 were capped within the range of measured concentrations. In seven cases, where curve fits were erroneous and produced IC 50 values above assay sensitivity range, IC 50 values were reduced to the highest concentration used in the assay (30 μ M).

IRAK1 [2] = molecular target: T1, IRAK1; details: read-out: affinity; cited from earlier work
[3] = 8-point curve from 30 μM, triplicates, 4PL fit, read-out: DRC result, IC50
[4] = 8-point curve from 30 μM, triplicates, 4PL fit, read-out: DRC result, pIC50 (converted)

Row | Compound | IC50 (IRAK1 [1]; [3]) | IC50 (IRAK1 [1]; [4]) | DRC result, activity class (IRAK1 [1]) | IC50 (IRAK1 [2]) | DRC result, pIC50 (IRAK1 [1]; 8-point curve from 30 μM, triplicates, 4PL fit)
1 | CC(C)Cc1ccnc(NC(=O)Cc2ccc(-c3cnc4cc(-c5ccncc5)ccn34)cc2F)c1 [C2] | 0.05 µM | 0.0525 µM | nanomolar | – | –
2 | C=CC(=O)Nc1cccc(C(=O)Nc2ccc(NC(=O)c3cccc(-c4ccn[nH]4)n3)cc2)c1 [JH-X-119-01] | – | – | – | 0.009 µM | –
3 | CNc1cc2c(cn1)cc(-c1ccc(F)c(NC(=O)Nc3cc(C(C)(C)C)nn3C)c1)c(=O)n2C(C)C [A1] | 0.09 µM | 0.0912 µM | nanomolar | – | –
4 | CCN1CCN(Cc2ccc(Nc3ncc(F)c(-c4cc(F)c5nc(C)n(C6CC6)c5c4)n3)nc2)CC1 [B2] | 0.06 µM | 0.0631 µM | nanomolar | – | –
5 | CC(C)(C)c1cc(NC(=O)NCc2ccc(-c3cnc4cc(-c5ccncc5)ccn34)cc2)n[nH]1 [C1] | 0.1 µM | – | nanomolar | – | 7.00
6 | Cc1nc(Nc2ncc(F)c(-c3cc(F)c4nc(C)n(C(C)C)c4c3)n2)ccc1N1CCN(C(C)C)CC1 [B1] | 0.02 µM | 0.0191 µM | nanomolar | – | –
